# Laboratory results reported in paper PMC11606603, “The membrane domains of mammalian adenylyl cyclases are lipid receptors” (eLife, 2024).
# pEC50: −log10 of the molar value. “And” between values parts separate entries of the source, which are not always exact repeats. Equal entries are not always repeated.
# Legend:
# Assay type in all cases: biochemical
# [1] = target: T1, mAC4 (Homo sapiens, UniProt Q8NFM4); assay: AC assay, Gsα-stimulated mAC4 in membranes from transfected HEK293 cells
# T1 construct: Human mAC genes were from GenScript and fitted with a C-terminal FLAG-tag; FLAG (C); made in house; host or cells: HEK293, permanently transfected; membrane preparation
# T1 sequence (Q8NFM4 1-1077): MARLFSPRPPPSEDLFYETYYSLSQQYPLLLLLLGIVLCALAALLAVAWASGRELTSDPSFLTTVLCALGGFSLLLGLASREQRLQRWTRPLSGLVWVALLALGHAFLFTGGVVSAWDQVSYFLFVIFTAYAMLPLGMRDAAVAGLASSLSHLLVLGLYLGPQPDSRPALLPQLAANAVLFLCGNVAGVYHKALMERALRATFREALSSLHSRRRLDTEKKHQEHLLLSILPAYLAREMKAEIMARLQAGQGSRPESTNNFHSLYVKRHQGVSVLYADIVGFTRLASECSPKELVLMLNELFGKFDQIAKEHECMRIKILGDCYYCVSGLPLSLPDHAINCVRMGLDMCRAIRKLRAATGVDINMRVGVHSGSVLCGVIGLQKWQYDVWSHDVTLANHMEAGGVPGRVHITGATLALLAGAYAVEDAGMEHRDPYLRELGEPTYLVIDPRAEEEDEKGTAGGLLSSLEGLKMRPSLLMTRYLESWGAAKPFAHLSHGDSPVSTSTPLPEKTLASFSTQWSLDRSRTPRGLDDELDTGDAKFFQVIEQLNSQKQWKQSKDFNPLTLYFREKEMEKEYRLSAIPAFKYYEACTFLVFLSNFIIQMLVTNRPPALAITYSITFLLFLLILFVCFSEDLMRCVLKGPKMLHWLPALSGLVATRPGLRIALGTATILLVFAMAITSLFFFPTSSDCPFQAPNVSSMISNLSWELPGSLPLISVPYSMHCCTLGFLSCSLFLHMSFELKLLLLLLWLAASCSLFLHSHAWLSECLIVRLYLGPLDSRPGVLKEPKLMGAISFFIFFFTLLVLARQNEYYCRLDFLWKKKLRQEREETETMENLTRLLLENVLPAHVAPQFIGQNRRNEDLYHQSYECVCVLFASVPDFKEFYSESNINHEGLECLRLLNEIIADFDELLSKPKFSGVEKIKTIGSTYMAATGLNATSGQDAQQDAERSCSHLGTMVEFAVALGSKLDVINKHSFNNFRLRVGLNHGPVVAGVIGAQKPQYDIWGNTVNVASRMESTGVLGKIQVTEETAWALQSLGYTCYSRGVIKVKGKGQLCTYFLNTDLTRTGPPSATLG
# How it was run: (§1)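 cAMP detected with a Cisbio kit, calibrated by a cAMP standard curve each run. Reaction: 1 mM ATP, 2 mM MgCl2, 3 mM creatine phosphate, 60 μg/ml creatine kinase, 50 mM MOPS pH 7.5. Enzyme source: membranes of stably transfected HEK293 (G418-selected) carrying FLAG-tagged human AC.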
# [2] = target: T2, mAC6 (Homo sapiens, UniProt O43306); assay: AC assay, Gsα-stimulated mAC6 in membranes from transfected HEK293 cells
# T2 construct: Human mAC genes were from GenScript and fitted with a C-terminal FLAG-tag; FLAG (C); made in house; host or cells: HEK293, permanently transfected; membrane preparation
# T2 sequence (O43306 whole entry): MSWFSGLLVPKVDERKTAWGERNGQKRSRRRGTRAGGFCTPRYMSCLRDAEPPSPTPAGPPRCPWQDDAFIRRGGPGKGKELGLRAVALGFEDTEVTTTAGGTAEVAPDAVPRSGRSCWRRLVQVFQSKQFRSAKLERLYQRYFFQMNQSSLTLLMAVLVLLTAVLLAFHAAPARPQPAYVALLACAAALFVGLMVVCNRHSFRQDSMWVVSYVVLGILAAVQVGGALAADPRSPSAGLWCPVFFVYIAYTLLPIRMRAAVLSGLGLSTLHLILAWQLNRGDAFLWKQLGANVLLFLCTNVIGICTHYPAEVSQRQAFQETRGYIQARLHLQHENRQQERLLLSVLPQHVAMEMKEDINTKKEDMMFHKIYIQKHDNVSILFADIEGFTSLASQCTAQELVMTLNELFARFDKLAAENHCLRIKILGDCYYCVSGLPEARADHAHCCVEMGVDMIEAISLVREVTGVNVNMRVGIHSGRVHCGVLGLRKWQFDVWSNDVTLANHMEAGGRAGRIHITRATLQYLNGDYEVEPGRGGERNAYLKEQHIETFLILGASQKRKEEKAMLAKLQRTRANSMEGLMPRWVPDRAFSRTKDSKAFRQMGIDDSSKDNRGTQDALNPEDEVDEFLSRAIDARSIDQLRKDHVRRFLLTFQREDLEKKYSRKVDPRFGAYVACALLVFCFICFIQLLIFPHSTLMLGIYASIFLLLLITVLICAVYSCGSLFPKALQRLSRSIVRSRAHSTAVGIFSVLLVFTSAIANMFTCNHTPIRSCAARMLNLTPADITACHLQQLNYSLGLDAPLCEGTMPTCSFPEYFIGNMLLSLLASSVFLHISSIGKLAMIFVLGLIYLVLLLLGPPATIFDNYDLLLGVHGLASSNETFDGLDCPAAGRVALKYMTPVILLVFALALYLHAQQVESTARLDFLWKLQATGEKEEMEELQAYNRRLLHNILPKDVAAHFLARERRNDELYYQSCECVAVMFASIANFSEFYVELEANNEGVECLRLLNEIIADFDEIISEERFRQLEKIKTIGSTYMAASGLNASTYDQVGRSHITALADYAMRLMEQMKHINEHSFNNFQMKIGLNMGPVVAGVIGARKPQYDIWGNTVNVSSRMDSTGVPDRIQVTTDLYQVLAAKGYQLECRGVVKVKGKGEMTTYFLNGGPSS
# How it was run: as §1
# [3] = target: T3, mAC3 (Homo sapiens, UniProt O60266); assay: AC assay, Gsα-stimulated mAC3 in membranes from transfected HEK293 cells; design: ATP/V (mAC3 + 20µM Oleic acid): unit not given here; conditions: for ATP/V (mAC3 + 20µM Oleic acid): Hanes-Woolf plot; for mAC3 activity + 20µM Oleic acid: Michaelis-Menten; for mAC3 activity [%] (100% = 300nM Gsα stimulation): individual experiments
# T3 construct: Human mAC genes were from GenScript and fitted with a C-terminal FLAG-tag; FLAG (C); made in house; host or cells: HEK293, permanently transfected; membrane preparation
# How it was run: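 EC50 and IC50 values come from cAMP production, read with a Cisbio cAMP kit and converted via a standard curve. Assay mix held 1 mM ATP, 2 mM MgCl2, 3 mM creatine phosphate and 60 μg/ml creatine kinase in 50 mM MOPS pH 7.5, using transfected HEK293 membranes.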
# [4] = target: T4, mAC1 (Homo sapiens, UniProt Q08828); assay: AC assay, Gsα-stimulated mAC1 in membranes from transfected HEK293 cells; conditions: 20 µM; in words
# T4 construct: Human mAC genes were from GenScript and fitted with a C-terminal FLAG-tag; FLAG (C); made in house; host or cells: HEK293, permanently transfected; membrane preparation
# T4 sequence (Q08828 whole entry): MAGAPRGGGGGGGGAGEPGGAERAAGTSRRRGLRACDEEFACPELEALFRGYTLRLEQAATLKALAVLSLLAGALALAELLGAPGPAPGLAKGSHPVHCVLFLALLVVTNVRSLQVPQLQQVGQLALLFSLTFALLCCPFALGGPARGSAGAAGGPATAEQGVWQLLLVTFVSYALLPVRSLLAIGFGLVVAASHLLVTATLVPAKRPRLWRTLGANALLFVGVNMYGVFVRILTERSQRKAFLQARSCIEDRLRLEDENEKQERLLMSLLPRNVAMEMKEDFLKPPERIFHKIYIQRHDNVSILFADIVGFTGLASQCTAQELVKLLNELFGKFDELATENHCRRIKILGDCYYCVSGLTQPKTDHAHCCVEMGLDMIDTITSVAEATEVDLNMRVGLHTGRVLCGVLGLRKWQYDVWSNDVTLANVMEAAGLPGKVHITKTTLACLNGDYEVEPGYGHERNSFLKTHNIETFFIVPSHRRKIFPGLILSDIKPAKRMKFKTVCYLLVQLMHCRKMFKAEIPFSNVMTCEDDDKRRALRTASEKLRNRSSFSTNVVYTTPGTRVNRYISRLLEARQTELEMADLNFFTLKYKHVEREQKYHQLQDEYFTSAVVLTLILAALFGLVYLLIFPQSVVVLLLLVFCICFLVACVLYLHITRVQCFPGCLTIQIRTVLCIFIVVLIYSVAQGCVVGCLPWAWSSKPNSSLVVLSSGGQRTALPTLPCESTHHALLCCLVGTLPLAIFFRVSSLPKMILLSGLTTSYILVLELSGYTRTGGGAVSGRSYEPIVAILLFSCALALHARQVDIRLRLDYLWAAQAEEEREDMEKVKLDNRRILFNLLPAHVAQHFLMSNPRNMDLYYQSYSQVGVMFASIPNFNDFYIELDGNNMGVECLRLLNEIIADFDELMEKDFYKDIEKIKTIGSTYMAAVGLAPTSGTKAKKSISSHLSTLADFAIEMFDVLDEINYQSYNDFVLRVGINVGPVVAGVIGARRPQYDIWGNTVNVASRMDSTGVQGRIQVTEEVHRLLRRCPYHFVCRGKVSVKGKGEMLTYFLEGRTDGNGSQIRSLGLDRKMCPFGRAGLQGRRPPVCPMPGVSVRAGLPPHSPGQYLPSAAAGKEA
# How it was run: as §1
# [5] = target: T5, mAC8 (Homo sapiens, UniProt P40145); assay: AC assay, Gsα-stimulated mAC8 in membranes from transfected HEK293 cells
# T5 construct: Human mAC genes were from GenScript and fitted with a C-terminal FLAG-tag; FLAG (C); made in house; host or cells: HEK293, permanently transfected; membrane preparation
# T5 sequence (P40145 whole entry): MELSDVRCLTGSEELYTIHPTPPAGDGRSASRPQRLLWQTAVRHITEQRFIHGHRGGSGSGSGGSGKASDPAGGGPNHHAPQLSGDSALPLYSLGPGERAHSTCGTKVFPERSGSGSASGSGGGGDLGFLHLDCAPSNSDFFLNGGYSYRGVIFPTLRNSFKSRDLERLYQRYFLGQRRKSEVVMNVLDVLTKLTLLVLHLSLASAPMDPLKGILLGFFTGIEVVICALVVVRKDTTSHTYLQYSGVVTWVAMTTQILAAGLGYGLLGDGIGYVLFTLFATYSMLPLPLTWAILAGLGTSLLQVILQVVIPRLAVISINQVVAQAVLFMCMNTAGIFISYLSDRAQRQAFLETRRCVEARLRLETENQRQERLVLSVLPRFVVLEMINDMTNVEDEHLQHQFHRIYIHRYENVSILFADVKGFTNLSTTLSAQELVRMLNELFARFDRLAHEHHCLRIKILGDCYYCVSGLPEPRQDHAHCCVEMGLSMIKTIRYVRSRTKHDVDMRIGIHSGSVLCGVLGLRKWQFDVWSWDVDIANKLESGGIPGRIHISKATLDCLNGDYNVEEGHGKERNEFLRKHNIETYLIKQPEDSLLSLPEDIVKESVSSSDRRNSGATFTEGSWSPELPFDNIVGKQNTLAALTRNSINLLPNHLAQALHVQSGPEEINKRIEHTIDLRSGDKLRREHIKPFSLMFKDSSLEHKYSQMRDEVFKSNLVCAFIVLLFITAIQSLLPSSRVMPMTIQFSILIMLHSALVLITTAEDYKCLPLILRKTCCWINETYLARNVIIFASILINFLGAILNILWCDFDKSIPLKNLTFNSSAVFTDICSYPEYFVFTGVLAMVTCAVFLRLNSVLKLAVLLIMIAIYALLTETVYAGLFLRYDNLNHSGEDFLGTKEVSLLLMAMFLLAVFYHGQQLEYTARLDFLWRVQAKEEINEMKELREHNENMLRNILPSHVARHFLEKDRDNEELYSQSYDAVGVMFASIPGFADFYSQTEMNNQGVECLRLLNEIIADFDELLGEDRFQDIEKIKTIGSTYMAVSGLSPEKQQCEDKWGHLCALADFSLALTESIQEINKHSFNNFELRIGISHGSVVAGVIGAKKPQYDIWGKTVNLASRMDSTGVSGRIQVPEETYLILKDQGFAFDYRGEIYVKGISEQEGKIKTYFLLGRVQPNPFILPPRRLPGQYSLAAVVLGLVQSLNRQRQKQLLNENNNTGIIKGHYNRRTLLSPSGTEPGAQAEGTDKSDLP
# How it was run: as §1
# [6] = target: T6, mAC2 (Homo sapiens, UniProt Q08462); assay: AC assay, Gsα-stimulated mAC2 in membranes from transfected HEK293 cells; conditions: for mAC2 activity [%] (100% = 300nM Gsα stimulation): Figure 5 B
# T6 construct: Human mAC genes were from GenScript and fitted with a C-terminal FLAG-tag; FLAG (C); made in house; host or cells: HEK293, permanently transfected; membrane preparation
# T6 sequence (Q08462 whole entry): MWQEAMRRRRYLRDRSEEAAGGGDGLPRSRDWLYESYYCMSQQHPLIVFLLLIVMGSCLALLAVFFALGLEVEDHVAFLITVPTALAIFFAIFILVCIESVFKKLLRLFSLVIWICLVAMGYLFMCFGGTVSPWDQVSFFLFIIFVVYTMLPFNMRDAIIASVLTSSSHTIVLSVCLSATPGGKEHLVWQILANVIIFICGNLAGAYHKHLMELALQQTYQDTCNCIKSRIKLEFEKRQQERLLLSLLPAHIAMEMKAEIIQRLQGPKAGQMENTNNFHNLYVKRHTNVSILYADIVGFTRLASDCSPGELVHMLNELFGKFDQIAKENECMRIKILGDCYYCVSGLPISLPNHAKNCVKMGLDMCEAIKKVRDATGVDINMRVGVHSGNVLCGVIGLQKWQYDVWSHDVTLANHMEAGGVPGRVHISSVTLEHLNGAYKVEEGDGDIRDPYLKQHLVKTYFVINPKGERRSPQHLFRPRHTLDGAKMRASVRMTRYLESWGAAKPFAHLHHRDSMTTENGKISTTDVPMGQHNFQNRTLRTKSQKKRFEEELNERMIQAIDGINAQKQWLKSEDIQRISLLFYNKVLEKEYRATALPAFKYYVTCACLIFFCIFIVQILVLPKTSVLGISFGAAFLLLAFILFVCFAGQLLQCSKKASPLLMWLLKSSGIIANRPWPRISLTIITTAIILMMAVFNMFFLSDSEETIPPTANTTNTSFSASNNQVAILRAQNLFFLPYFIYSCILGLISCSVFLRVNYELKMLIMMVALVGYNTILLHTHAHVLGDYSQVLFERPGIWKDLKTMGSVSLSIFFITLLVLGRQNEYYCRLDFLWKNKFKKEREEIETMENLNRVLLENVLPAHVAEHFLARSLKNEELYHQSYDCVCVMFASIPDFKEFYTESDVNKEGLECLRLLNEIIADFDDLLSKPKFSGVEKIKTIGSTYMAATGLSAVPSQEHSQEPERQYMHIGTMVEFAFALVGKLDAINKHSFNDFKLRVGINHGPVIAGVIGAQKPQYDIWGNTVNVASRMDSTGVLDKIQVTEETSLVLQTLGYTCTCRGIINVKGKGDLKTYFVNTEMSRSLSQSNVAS
# T6 sequence (P63092 2-394 Q227L partner): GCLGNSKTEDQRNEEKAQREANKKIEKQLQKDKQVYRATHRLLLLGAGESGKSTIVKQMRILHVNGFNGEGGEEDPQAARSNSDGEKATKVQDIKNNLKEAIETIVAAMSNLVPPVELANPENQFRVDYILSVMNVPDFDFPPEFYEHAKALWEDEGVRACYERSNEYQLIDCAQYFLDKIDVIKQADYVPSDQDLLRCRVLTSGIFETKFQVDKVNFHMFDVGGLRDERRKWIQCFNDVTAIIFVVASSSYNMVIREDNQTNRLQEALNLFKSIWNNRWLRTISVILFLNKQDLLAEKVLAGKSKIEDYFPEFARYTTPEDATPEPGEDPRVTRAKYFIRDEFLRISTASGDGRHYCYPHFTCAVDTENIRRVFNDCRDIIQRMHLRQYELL
# How it was run: as §1
# [7] = Figure 5 A, 20 µM oleic acid, 300 nM Gsα
# [8] = enhancement of 300 nM Gsα-stimulated activity
smiles,measurement,setting,value
"CCCCCCCC/C=C\CCCCCCCC(=O)O [Oleic acid, Oleic ((9Z)-octadecenoic) acid]",mAC4 activity [%] (100% = 300nM Gsα stimulation); 20µM fatty acid concentration,"[1]; 20 µM fatty acid, 300 nM Gsα, single experiments",100% and 72% and 120% and 92%
same,Effect of lipid on 300 nM Gsα-stimulated mAC4,"[1]; 20 µM, in words",unaffected
same,"mAC activity [%] (100% = 300nM Gsα stimulation); 20µM Oleic acid concentration, mAC4",[1]; [7],72% and 92% and 64% and 100%
same,mAC6 activity [%] (100% = 300nM Gsα stimulation),[2]; 20µM fatty acid concentration,92% and 80% and 133%
same,Effect of lipid on 300 nM Gsα-stimulated mAC6,"[2]; 20 µM, in words",unaffected
same,"mAC activity [%] (100% = 300nM Gsα stimulation); 20µM Oleic acid concentration, mAC6",[2]; [7],92% and 80% and 133%
same,time over which the action on mAC3 was linear,"[3]; 300 nM Gsα + 20 µM oleic acid, 37°C",> 25 min
same,"enhancement of cAMP formation, mAC3","[3]; 20 µM oleic, over the Gsα concentration range tested",about 3.4 fold
same,Effect of lipid on 300 nM Gsα-stimulated mAC3,"[3]; 20 µM, in words",threefold
same,"activity, mAC3 + 20µM Oleic acid",[3]; Gsα 100 nM,0.209 cAMP nmol/mg/min and 0.110 cAMP nmol/mg/min and 0.112 cAMP nmol/mg/min
same,"activity, mAC3 + 20µM Oleic acid",[3]; Gsα 300 nM,0.432 cAMP nmol/mg/min and 0.605 cAMP nmol/mg/min and 0.596 cAMP nmol/mg/min
same,"activity, mAC3 + 20µM Oleic acid",[3]; Gsα 450 nM,0.779 cAMP nmol/mg/min and 1.182 cAMP nmol/mg/min and 0.727 cAMP nmol/mg/min
same,"activity, mAC3 + 20µM Oleic acid",[3]; Gsα 600 nM,0.825 cAMP nmol/mg/min and 1.078 cAMP nmol/mg/min and 1.302 cAMP nmol/mg/min
same,"activity, mAC3 + 20µM Oleic acid",[3]; Gsα 800 nM,1.075 cAMP nmol/mg/min and 1.164 cAMP nmol/mg/min and 1.303 cAMP nmol/mg/min
same,"activity, mAC3 + 20µM Oleic acid",[3]; Gsα 1000 nM,1.029 cAMP nmol/mg/min and 1.444 cAMP nmol/mg/min and 1.731 cAMP nmol/mg/min
same,ATP/V (mAC3 + 20µM Oleic acid),[3]; ATP 50 µM,208.8
same,ATP/V (mAC3 + 20µM Oleic acid),[3]; ATP 75 µM,204.9
same,ATP/V (mAC3 + 20µM Oleic acid),[3]; ATP 250 µM,392.9
same,ATP/V (mAC3 + 20µM Oleic acid),[3]; ATP 500 µM,636.9
same,ATP/V (mAC3 + 20µM Oleic acid),[3]; ATP 750 µM,814.6
same,ATP/V (mAC3 + 20µM Oleic acid),[3]; ATP 1000 µM,941.6
same,mAC3 activity + 20µM Oleic acid,[3]; ATP 50 µM,0.232 nmol cAMP/mg/min and 0.247 nmol cAMP/mg/min
same,mAC3 activity + 20µM Oleic acid,[3]; ATP 75 µM,0.434 nmol cAMP/mg/min and 0.298 nmol cAMP/mg/min
same,mAC3 activity + 20µM Oleic acid,[3]; ATP 250 µM,0.713 nmol cAMP/mg/min and 0.609 nmol cAMP/mg/min and 0.587 nmol cAMP/mg/min
same,mAC3 activity + 20µM Oleic acid,[3]; ATP 500 µM,0.786 nmol cAMP/mg/min and 0.782 nmol cAMP/mg/min and 0.787 nmol cAMP/mg/min
same,mAC3 activity + 20µM Oleic acid,[3]; ATP 750 µM,0.817 nmol cAMP/mg/min and 0.753 nmol cAMP/mg/min and 1.192 nmol cAMP/mg/min
same,mAC3 activity + 20µM Oleic acid,[3]; ATP 1000 µM,0.944 nmol cAMP/mg/min and 1.156 nmol cAMP/mg/min and 1.086 nmol cAMP/mg/min
same,pEC50,[3]; [8],4.98
same,mAC3 activity [%] (100% = 300nM Gsα stimulation),[3]; fatty acid 0.5 µM,100%
same,mAC3 activity [%] (100% = 300nM Gsα stimulation),[3]; fatty acid 1 µM,112% and 105% and 91% and 64% and 97% and 107% and 78% and 95% and 111% and 139% and 103% and 106% and 87%
same,mAC3 activity [%] (100% = 300nM Gsα stimulation),[3]; fatty acid 3 µM,98% and 158% and 97% and 183% and 141% and 160% and 142% and 105% and 145% and 150%
same,mAC3 activity [%] (100% = 300nM Gsα stimulation),[3]; fatty acid 6 µM,117% and 105% and 165% and 187% and 143% and 169% (2×) and 166% and 97%
same,mAC3 activity [%] (100% = 300nM Gsα stimulation),[3]; fatty acid 10 µM,271% and 106% and 156% and 151% and 142% and 280% and 178% and 252% and 181% and 191% and 139% and 175% and 284% and 260% and 266% and 166%
same,mAC3 activity [%] (100% = 300nM Gsα stimulation),[3]; fatty acid 20 µM,341% and 348% and 429% and 323% and 430% and 264% and 322% and 395% and 181% and 452% and 464% and 265% (2×)
same,mAC3 activity [%] (100% = 300nM Gsα stimulation),"[3]; fatty acid 20 µM, listed as Oleic",298% and 532% and 253% and 428% and 297%
same,mAC3 activity; stimulated by 300nM Gsα + 20µM Oleic acid,"[3]; time 3 min, 37°C",2.601 cAMP nmol/mg and 2.019 cAMP nmol/mg
same,mAC3 activity; stimulated by 300nM Gsα + 20µM Oleic acid,"[3]; time 6 min, 37°C",2.734 cAMP nmol/mg and 2.75 cAMP nmol/mg
same,mAC3 activity; stimulated by 300nM Gsα + 20µM Oleic acid,"[3]; time 10 min, 37°C",3.46 cAMP nmol/mg
same,mAC3 activity; stimulated by 300nM Gsα + 20µM Oleic acid,"[3]; time 15 min, 37°C",4.543 cAMP nmol/mg and 5.759 cAMP nmol/mg
same,mAC3 activity; stimulated by 300nM Gsα + 20µM Oleic acid,"[3]; time 20 min, 37°C",6.22 cAMP nmol/mg and 8.564 cAMP nmol/mg
same,mAC3 activity; stimulated by 300nM Gsα + 20µM Oleic acid,"[3]; time 25 min, 37°C",9.573 cAMP nmol/mg and 11.033 cAMP nmol/mg
same,"Vmax, mAC3",[3]; with 20 µM oleic acid,1.23 nmol cAMP•mg^−1•min^−1
same,Effect of lipid on 300 nM Gsα-stimulated mAC1,[4],slightly attenuated
same,mAC8 activity [%] (100% = 300nM Gsα stimulation),[5]; 20µM fatty acid concentration,134% and 139%
same,Effect of lipid on 300 nM Gsα-stimulated mAC8,"[5]; 20 µM, in words",unaffected
same,"mAC activity [%] (100% = 300nM Gsα stimulation); 20µM Oleic acid concentration, mAC8",[5]; [7],134% and 139%
same,Effect of lipid on 300 nM Gsα-stimulated mAC2,"[6]; 20 µM, in words",significantly enhanced
same,mAC2 activity [%] (100% = 300nM Gsα stimulation); 20µM fatty acid concentration,"[6]; Figure 5-figure supplement 1 left, 20 µM",252% and 212% and 173% and 181% and 196% and 228% and 168%
same,mAC2 activity [%] (100% = 300nM Gsα stimulation),[6]; oleic acid 0.3 µM,100%
same,mAC2 activity [%] (100% = 300nM Gsα stimulation),[6]; oleic acid 1 µM,98% and 100% and 117% and 87%
same,mAC2 activity [%] (100% = 300nM Gsα stimulation),[6]; oleic acid 3 µM,82% and 99% and 116% and 107%
same,mAC2 activity [%] (100% = 300nM Gsα stimulation),[6]; oleic acid 6 µM,120% and 95% and 119% and 162% and 110% and 87%
same,mAC2 activity [%] (100% = 300nM Gsα stimulation),[6]; oleic acid 10 µM,157% and 167% and 142% and 171% and 162% and 123%
same,mAC2 activity [%] (100% = 300nM Gsα stimulation),[6]; oleic acid 20 µM,196% and 228% and 168% and 252% and 212% and 173% and 181%
same,pEC50,[6]; [8],5.07
